Experimental data published in ChEMBL document CHEMBL5356979, “Synthesis, antibiofilm activity and molecular docking of N-acylhomoserine lactones containing cinammic moieties” (Bioorg Med Chem Lett, 2024).
The source made the active and inactive calls. The rule behind the calls is not given here.

Experiments:
[1] = system: Pseudomonas aeruginosa; assay: Antibacterial activity against Pseudomonas aeruginosa assessed as inhibition of bacterial growth at 50 uM incubated for 24 hrs by microdilution method; format: functional, organism-based
[2] = Inhibition of quorum sensing system in Chromobacterium violaceum assessed as inhibition of violacein secretion by measuring inhibition halo at 100 uM
[3] = system: Klebsiella pneumoniae; assay: Antibacterial activity against Klebsiella pneumoniae assessed as inhibition of bacterial growth at 50 uM incubated for 24 hrs by microdilution method; format: functional, organism-based
[4] = Inhibition of quorum sensing system in Chromobacterium violaceum assessed as inhibition of violacein secretion by measuring inhibition halo at 50 uM
[5] = system: Staphylococcus aureus; assay: Antibiofilm activity against Staphylococcus aureus assessed as inhibition of biofilm formation at 50 uM incubated for 24 hrs by crystal violet staining based analysis relative to control; format: functional
[6] = system: Klebsiella pneumoniae; assay: Antibiofilm activity against Klebsiella pneumoniae assessed as inhibition of biofilm formation at 50 uM incubated for 24 hrs by crystal violet staining based analysis relative to control; format: functional
[7] = system: Pseudomonas aeruginosa; assay: Antibiofilm activity against Pseudomonas aeruginosa assessed as inhibition of biofilm formation at 50 uM incubated for 24 hrs by crystal violet staining based analysis relative to control; format: functional
[8] = system: Staphylococcus aureus; assay: Antibacterial activity against Staphylococcus aureus assessed as inhibition of bacterial growth at 50 uM incubated for 24 hrs by microdilution method; format: functional, organism-based
[9] = Aqueous solubility of compound; format: physicochemical; settings: buffer
[10] = Cytotoxicity against green monkey COS-7 cells assessed as inhibition of cell growth at 100 uM relative to control; format: toxicity, cell-based; settings: chlorocebus aethiops
[11] = system: Rhodopseudomonas palustris; assay: Antibiofilm activity against Rhodopseudomonas palustris assessed as inhibition of biofilm formation at 1 uM relative to control; format: functional

inhibition zone (IZ) [2] [mm] | inhibition zone (IZ) [4] [mm] | solubility [9] | SMILES | Activity [1] | Activity [3] | inhibition at 50 µM [5] [%] | inhibition at 50 µM [6] [%] | inhibition at 50 µM [7] [%] | Activity [8] | inhibition at 100 µM [10] [%] | inhibition at 1 µM [11] [%]
0.3 | 0.6 | – | COc1ccc(/C=C/C(=O)N[C@H]2CCOC2=O)cc1 | inactive | inactive | 8.49 | 12 | 35.9 | inactive | – | –
3.7 | 2.7 | – | COc1cc(/C=C/C(=O)N[C@H]2CCOC2=O)cc(OC)c1OC | inactive | inactive | 37.1 | 0 | 26.9 | inactive | 3.2 | –
– | – | Insoluble | COc1cccc(/C=C/C(=O)N[C@H]2CCOC2=O)c1 | inactive | inactive | 27.3 | 22.3 | 0 | inactive | – | –
0.6 | 1.3 | – | O=C(/C=C/c1ccccc1)N[C@H]1CCOC1=O | inactive | inactive | 18 | 0 | 29.1 | inactive | – | –
– | – | Insoluble | O=C(/C=C/c1ccc(-c2ccccc2)cc1)N[C@H]1CCOC1=O | inactive | inactive | 8.4 | 0 | 0 | inactive | – | –
2.7 | 2.2 | – | O=C(/C=C/C=C/c1ccccc1)N[C@H]1CCOC1=O | inactive | inactive | 14 | 28.3 | 30.2 | inactive | 0 | –
– | – | Insoluble | O=C(/C=C/c1cccc(F)c1)N[C@H]1CCOC1=O | inactive | inactive | 0 | 0 | 0 | inactive | – | –
– | – | Insoluble | Cn1cccc1/C=C/C(=O)N[C@H]1CCOC1=O | inactive | inactive | 0 | 0 | 0 | inactive | – | –
– | – | Insoluble | O=C(/C=C/c1ccc2c(c1)OCO2)N[C@H]1CCOC1=O | inactive | inactive | 5 | 27.1 | 0 | inactive | – | –

Continued, compound first:

SMILES | inhibition zone (IZ) [2] [mm] | inhibition zone (IZ) [4] [mm] | solubility [9] | Activity [1] | Activity [3] | inhibition at 50 µM [5] [%] | inhibition at 50 µM [6] [%] | inhibition at 50 µM [7] [%] | Activity [8] | inhibition at 100 µM [10] [%] | inhibition at 1 µM [11] [%]
O=C(/C=C/c1ccc(C(F)(F)F)cc1)N[C@H]1CCOC1=O | – | – | – | inactive | inactive | 2.2 | 30.2 | 0 | inactive | – | –
Cn1c(/C=C/C(=O)N[C@H]2CCOC2=O)cc2ccccc21 | – | – | Insoluble | inactive | inactive | 0.5 | 0 | 0 | inactive | – | –
O=C(/C=C/c1cccs1)N[C@H]1CCOC1=O | – | – | – | inactive | inactive | 15.3 | 12.6 | 19.6 | inactive | – | –
O=C(/C=C/c1ccco1)N[C@H]1CCOC1=O | – | – | – | inactive | inactive | 18.2 | 0 | 24.3 | inactive | – | –
CC(C)=CCC/C(C)=C/C(=O)N[C@H]1CCOC1=O | – | – | – | inactive | inactive | 26.5 | 24.5 | 25.3 | inactive | – | –
O=C(/C=C/c1ccc(Cl)cc1)N[C@H]1CCOC1=O | – | – | – | inactive | inactive | 12 | 0 | 23.7 | inactive | – | 30
O=C(/C=C/c1ccc(F)cc1)N[C@H]1CCOC1=O | – | – | – | inactive | inactive | 0 | 0 | 20.3 | inactive | – | –
CC(C)c1ccc(/C=C/C(=O)N[C@H]2CCOC2=O)cc1 | – | – | – | inactive | inactive | 16.1 | 17.9 | 23.7 | inactive | – | –
O=C(/C=C/c1cccnc1)N[C@H]1CCOC1=O | – | – | – | inactive | inactive | 0 | 0 | 14.2 | inactive | – | –
O=C1C=C(Br)/C(=C/Br)O1 | 5.1 | 1.3 | – | – | – | 10.1 | 8.4 | 40.2 | – | – | –
Cc1ccc(/C=C/C(=O)N[C@H]2CCOC2=O)cc1 | 2 | 1.3 | – | inactive | inactive | 4.4 | 16.9 | 29.8 | inactive | – | –
